The test system of data set [1] is MCF-7. The data set can be described thus: Breast cancer panel proliferation inhibition, MCF-7. Particulars: Homo sapiens. The data set is classed as cell-based. As for the experimental part:
(§1) Inhibitory ability of compounds synthesized on the proliferation of three panels of cancer cell lines, including 5 breast cancer, 6 liver cancer, and 3 lung cancer cell lines were evaluated. Exponentially growing cells were seeded in the media of choice at various cell densities in 384-well plates with 20 ul per well and incubated overnight at 37° C., 5% CO2 incubator. Compounds were prepared as 10-point, 3-fold serial dilutions in DMSO, beginning at 6 mM. 1 μl of DMSO solutions from the compound stock plates were added to 99 ul of cell media (final top concentration of compound in the assay was 30 uM and the final concentration of DMSO was 0.5%). 20 μL of compound solutions in media were added to each well of plates with cells seeded. After adding compound solutions, assay plates were incubated for 8 and 12 days, respectively, at 37° C., 5% CO2. During this incubation period, cell media was changed every 4 days. After removing old media from cell plates, 40 ul of media with testing compounds dissolved, which were prepared by adding 1 ul of compound DMSO serial solutions to 199 ul of cell media, were added to the assay plates with the same layout as they were initially prepared. After 8 or 12 days, cell viability was measured using the CellTiter-Glo assay kit from Promega (Madison, Wis., USA) by quantitating the ATP present in the cell cultures. 20 μL of CellTiter-Glo reagent was added to each well of the cell plates. Luminescence was read after 10 minute of incubation with the Envision multiple plate reader from PerkinElmer (Waltham, Mass., USA). The concentrations of compounds inhibiting cell viability by 50% (IC50 values) were determined using a sigmoidal dose-response model (variable slopes, four parameters) in Prism 7 (La Jolla, Calif., USA).

In data set [2] the test system is Huh7. In words: Liver cancer panel proliferation inhibition, Huh7. The data set is classed as cell-based. Particulars: Homo sapiens. As for the experimental part: as §1
Data set [3] relates to BT474. The data set can be described thus: Breast cancer panel proliferation inhibition, BT474. Format: cell-based. The following applies: Homo sapiens. As for the experimental part:
as §1

The subject of data set [4] is EBC-1. In words: Lung cancer panel proliferation inhibition, EBC-1. The data set is classed as cell-based. The following applies: Homo sapiens. The method, then:
as §1

The subject of data set [5] is HCC827. In words: Lung cancer panel proliferation inhibition, HCC827. Format: cell-based. Particulars: Homo sapiens. As for the experimental part: as §1
Data set [6] in a line: Pharmacokinetic study in rat. The data set is classed as in vivo, Male SD rats. Particulars: male, SD; for plasma clearance / Vd: 2 mg/kg, Rat PK (IV) 2 mpk; for plasma clearance: read-out: Clint (converted); for Vd / AUC(0-t) / Cmax / Tmax / bioavailability / half-life: plasma; for Vd: read-out: Vss; for AUC(0-t) / Cmax / Tmax / bioavailability / half-life: 10 mg/kg, Rat PK (PO) 10 mpk; for half-life: read-out: T½ (converted). The method, then:
Male SD rats (185-265 g; purchased from Shanghai SLAC laboratory animal CO. LTD; n=18, with 3 per compound) were treated with a single dose of compounds being tested at 2 mg/kg by intravenous tail-vein injection and 10 mg/kg by oral gavage administration, with both doses formulated in 5% DMSO+45% PEG400 in water. Animals upon PO administration were fasted overnight and fed 4 hours after dosing. Animals upon IV administration were free access to food and water. The study was performed in accordance with the guidelines and standards of the Association for Assessment and Accreditation of Laboratory Animal Care (AAALAC International) and the National Institutes of Health.
The animal is restrained manually. Approximately 150 μL whole blood/time point is collected in K2EDTA tube via tail vein. Blood sample will be put on ice and centrifuged at 2000 g for 5 min to obtain plasma sample within 15 minutes. Plasma samples were stored at approximately −70° C. until analysis. An aliquot of 20 μL sample was added with 200 μL IS (Diclofenac, 100 ng/mL) in ACN. The mixture was vortexed for 10 min and centrifuged at 5800 rpm for 10 min. An aliquot of 1 μL supernatant was injected for LC-MS/MS analysis. For 10×-diluted sample, an aliquot of 2 μL sample was added with 18 μL blank plasma. The sample preparation procedure is same with no-diluted sample. Standard calibration curves were constructed by analyzing a series of control plasma aliquots containing Diclofenac (100 ng/mL) as an internal standard and 1.0-3,000 ng/mL testing compounds. Compound concentrations were determined with UPLC-MS/MS-22 (Triple Quad™ 6500).

Data set [7] deals with MDA-MB-468. In words: Breast cancer panel proliferation inhibition, MDA-MB-468. The following applies: Homo sapiens. The data set is classed as cell-based. The method, then: as §1
The subject of data set [8] is Mantle Cell Lymphoma Z-138 cell. In words: Cell proliferation inhibition, Z-138 (CCK8). Particulars: Homo sapiens, Z-138, 96 h, Z-138, incubated 4 days. The data set is classed as cell-based. From the text: Materials and Cell Lines: Z-138, U251, and MIA PaCa2 cells were purchased from ATCC (American Type Culture Collection, Manassas, Va.) and Chinese Academy of Science (Shanghai, China). Iscove's Modified Dulbecco's Medium (IMDM), Dulbecco's Modified Eagle Medium (DMEM), penicillin-streptomycin, heat inactivated fetal bovine serum (FBS), and horse serum was purchased from ThermoFisher, Waltham, Mass., USA. Corning 96- and 384-well cell culture plates were purchased from ThermoFisher, Waltham, Mass., USA. Cell-Titer Glo® was purchased from Promega Corporation, Madison, Wis., USA.
In order to evaluate the inhibitory ability of compounds synthesized on the proliferation of the Mantle Cell Lymphoma Z-138 cell, exponentially growing cells were seeded in the media of IMDM with 10% horse serum and 1% penicillin-streptomycin at a concentration of 30000 cells/ml in a 96-well plate with 100 ul per well and incubated overnight at 37° C., 5% CO2 incubator. Compounds were prepared as 10-point, 3-fold serial dilutions in DMSO, beginning at 6 mM. 1 μl of DMSO solutions from the compound stock plates were added to 99 ul of cell culture media (final top concentration of compound in the assay was 30 uM and the final concentration of DMSO was 0.5%). 100 μL of compound solutions in media were added to each well of Z-138 cell plates. After adding compound solutions, assay plates were incubated for 4 days at 37° C., 5% CO2. Cell viability was measured using the Cell Counting Kit-8 (CCK8) obtained from the Beyotime Biotehnology, Shanghai, China. 20 ul of CCK8 reagent was added to each well of the Z-138 assay plate which was incubated at 37° C. for 2 hours. O.D. at 450 nm was read with the FlexStation 3 microplate reader (Molecular Devices, Sunnyvale, Calif. 94089 USA). The concentrations of compounds inhibiting cell viability by 50% (IC50 values) were determined using a sigmoidal dose-response model (variable slopes, four parameters) in Prism 7 (La Jolla, Calif.).

The mark [9] stands for this setting: MCF7, 192 h, MCF-7, 8 days, read-out: IC50 (μM) 8 days.
[10] abbreviates: MCF7, 288 h, MCF-7, 12 days, read-out: IC50 (μM) 12 days.
The mark [11] stands for this setting: Huh-7, 192 h, Huh7, 8 days, read-out: IC50 (μM) 8 days.
[12] abbreviates: Huh-7, 288 h, Huh7, 12 days, read-out: IC50 (μM) 12 days.
[13] abbreviates: BT-474, 192 h, BT474, 8 days, read-out: IC50 (μM) 8 days.
[14] abbreviates: BT-474, 288 h, BT474, 12 days, read-out: IC50 (μM) 12 days.
[15] abbreviates: 192 h, EBC-1, 8 days, read-out: IC50 (μM) 8 days.
Setting [16] is: 288 h, EBC-1, 12 days, read-out: IC50 (μM) 12 days.
The mark [17] stands for this setting: 192 h, HCC827, 8 days, read-out: IC50 (μM) 8 days.
[18] abbreviates: 288 h, HCC827, 12 days, read-out: IC50 (μM) 12 days.
The mark [19] stands for this setting: 192 h, MDA-MB-468, 8 days, read-out: IC50 (μM) 8 days.
[20] abbreviates: 288 h, MDA-MB-468, 12 days, read-out: IC50 (μM) 12 days.

The record followed here is patent US11591326B2, “Inhibitors of protein arginine methyltransferase 5 (PRMT5), pharmaceutical products thereof, and methods thereof” (PHARMABLOCK SCIENCES (NANJING), INC., priority 2018, dated 2023).

For orientation: IC50 means the concentration that inhibits the measured activity by half. A word on the AUC(0-t): it is the area under the concentration-time curve up to a stated or last time point. Read a low AUC(0-t) as low exposure. The term Cmax denotes the maximum level reached in the sampled fluid or tissue. In general, Tmax refers to the time from dosing to the highest level. By bioavailability is commonly meant dose-corrected exposure relative to a reference, in per cent. Low values mean little systemic uptake, high ones much systemic uptake.

Like-named read-outs stand apart in the source and are kept apart here.

On to `CC(=O)N1CCC(Nc2ccc3c(c2)C(=O)N(C[C@H](O)CN2CCc4ccccc4C2)CCO3)CC1` [Compound 52a, (R)-7-((1-acetylpiperidin-4-yl)amino)-4-(3-(3,4-dihydroisoquinolin-2(1H)-yl)-2-hydroxypropyl)-3,4-dihydrobenzo[f][1,4]oxazepin-5(2H)-one], for which the 50% inhibitory concentration (IC50) in data set [1] (setting [9]) was 0.025 µM; in data set [1] (setting [10]) it was 0.021 µM; in data set [2] (setting [11]), 0.26 µM; in data set [2] (setting [12]) it was 0.092 µM; in data set [3] (setting [13]) it was 0.041 µM; in data set [3] (setting [14]), 0.03 µM. Also, the IC50 in data set [4] (setting [15]) was determined as 0.028 µM; in data set [4] (setting [16]) it was 0.031 µM; in data set [5] (setting [17]), 0.16 µM; in data set [5] (setting [18]) it was 0.089 µM; in data set [7] (setting [19]) it was 0.022 µM; in data set [7] (setting [20]), 0.0038 µM. In data set [8], this compound registered an IC50 of 0.014 µM. Also, the plasma clearance in data set [6] is 35.3 mL/min/kg. For the same compound, the Vd in data set [6] is 5.02 ± 0.389 L/kg. The compound also registered an AUC(0-t) in data set [6] of 2260 ± 764 ng·h/mL. The same compound gave a Cmax in data set [6] of 563 ± 233 ng/mL. Also, the Tmax in data set [6] turned out to be 1.33 ± 0.577 h. In data set [6], this compound returned a bioavailability of 48.1 ± 16.1%. Also, in data set [6], the half-life was 3.02 ± 0.413 h.
Turning to `CC(=O)N1CCC(Nc2cc(C(=O)NC[C@H](O)CN3CCc4ccccc4C3)ncn2)CC1` [Compound C3, reference compound], the IC50 in data set [1] (setting [10]) is 0.029 µM; in data set [2] (setting [11]), 0.23 µM; in data set [2] (setting [12]) it was 0.073 µM; in data set [3] (setting [13]), 0.14 µM; in data set [3] (setting [14]) it was 0.056 µM; in data set [4] (setting [15]), 0.062 µM. For the same compound, the half-inhibitory concentration (IC50) worked out at 0.057 µM in data set [4] (setting [16]); 0.34 µM in data set [5] (setting [17]); 0.5 µM in data set [5] (setting [18]); 0.044 µM in data set [7] (setting [19]); 0.0074 µM in data set [7] (setting [20]); 0.07 µM in data set [8]. The plasma clearance in data set [6] is 35.5 mL/min/kg. The Vd in data set [6] came to 2.17 ± 0.0643 L/kg. Also, the AUC(0-t) in data set [6] is 1400 ± 601 ng·h/mL. Moreover, in data set [6], the Cmax was 364 ± 82.5 ng/mL. Besides, the Tmax in data set [6] was 1.67 ± 0.577 h. In data set [6], this compound had a bioavailability of 30.5 ± 13%. In addition, the half-life in data set [6] is 1.5 ± 0.123 h.
As for `CC(=O)N1CCC(Nc2ccc3c(c2)C(=O)N(C[C@H](O)CN2CCc4ccccc4C2)CC3)CC1` [Compound 24a, (R)-7-((1-acetylpiperidin-4-yl)amino)-2-(3-(3,4-dihydroisoquinolin-2(1H)-yl)-2-hydroxypropyl)-3,4-dihydroisoquinolin-1(2H)-one], the IC50 in data set [1] (setting [9]) was found to be 0.016 µM; in data set [1] (setting [10]) it was 0.026 µM; in data set [2] (setting [11]) it was 0.28 µM; in data set [2] (setting [12]), 0.072 µM; in data set [3] (setting [13]), 0.11 µM; in data set [3] (setting [14]), 0.057 µM. The IC50 in data set [4] (setting [15]) came out at 0.025 µM; in data set [4] (setting [16]), 0.03 µM; in data set [5] (setting [17]) it was 0.19 µM; in data set [5] (setting [18]), 0.11 µM; in data set [7] (setting [19]), 0.042 µM; in data set [7] (setting [20]), 0.0041 µM. The same compound gave an IC50 in data set [8] of 0.014 µM. For the same compound, the plasma clearance in data set [6] is 31.7 mL/min/kg. Also, the Vd in data set [6] was found to be 7.15 ± 2.86 L/kg. In data set [6], this compound displayed an AUC(0-t) of 3280 ± 805 ng·h/mL. In data set [6], this compound returned a Cmax of 798 ± 247 ng/mL. Moreover, the Tmax in data set [6] turned out to be 1.17 ± 0.764 h. Moreover, the bioavailability in data set [6] is 62 ± 15.1%. In data set [6], the half-life was 3.13 ± 0.415 h.
